Measurements: patent US11919908B2, “Substituted pyrrolo[2,3-d]pyrimidine compounds as JAK2 V617F inhibitors” (Incyte Corporation, priority 2020, dated 2024)

What was measured:
[1] = biological target: T1, pseudo-kinase domain (JH2) of human V617F mutant JAK2 (Homo sapiens, UniProt O60674, F794H/V617F/W659A/W777A); experiment: JAK2 LanthaScreen JH2-V617F Binding Assay; details: 50 nM Fluorescent JAK2-JH2 Tracer, 1 hour at 25° C.
T1 construct: pseudo-kinase domain (JH2, amino-acids 536-812 with 3 surface mutations W659A, W777A, F794H); His (C); purchased BPS Bioscience 79498; host or cells: baculovirus expression system
T1 sequence (O60674 536-812 V617F/W659A/W777A/F794H): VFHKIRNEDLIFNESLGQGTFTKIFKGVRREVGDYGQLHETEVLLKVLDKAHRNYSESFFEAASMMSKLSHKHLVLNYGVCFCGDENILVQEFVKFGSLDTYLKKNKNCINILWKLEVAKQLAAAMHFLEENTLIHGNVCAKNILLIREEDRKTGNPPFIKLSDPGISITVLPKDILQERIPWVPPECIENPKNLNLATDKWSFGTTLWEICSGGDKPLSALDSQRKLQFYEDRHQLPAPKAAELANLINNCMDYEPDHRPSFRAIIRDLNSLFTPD
Protocol: (§1) Example C. JAK2 LanthaScreen JH2-V617F Binding Assay JAK2 JH2-V617F binding assay utilizes pseudo-kinase domain (JH2, amino-acids 536-812 with 3 surface mutations […]) of human V617F mutant JAK2 expressed as C-terminal His-Avi-tagged, biotinylated protein in a baculovirus expression system (BPS Bioscience, Catalog #79498). The assay was conducted in black 384-well polystyrene plates in a final reaction volume of 20 μL. JAK2 JH2-V617F (0.26 nM) was incubated with compounds (100 nL serially diluted in DMSO) in the presence of 50 nM Fluorescent JAK2-JH2 Tracer (MedChem Express Catalog #HY-102055) and 0.25 nM Streptavidin-Tb cryptate (Cisbio Part #610SATLB) in assay buffer (50 mM Tris, pH=7.5, 10 mM MgCl2, 0.01% Brij-35, 0.1% BSA, 1 mM EGTA, 5% Glycerol and 5 mM DTT). Non-specific binding was accessed in the presence of 2 mM ATP. After incubation for 1 hour at 25° C., LanthaScreen signals were read on a PHERAstar FS plate reader (BMG LABTECH). Data was analyzed with IDBS XLfit and GraphPad Prism 5.0 software using a four parameter dose response curve to determine IC50 for each compound.

[2] = biological target: T2, pseudo-kinase domain (JH2) of human Wild Type JAK2 (Homo sapiens, UniProt O60674, F794H/W659A/W777A); experiment: JAK2 LanthaScreen JH2-WT Binding Assay; details: 50 nM Fluorescent JAK2-JH2 Tracer, 1 hour at 25° C.
T2 construct: pseudo-kinase domain (JH2, amino-acids 536-812 with 3 surface mutations W659A, W777A, F794H); His (C); purchased BPS Bioscience 79463; host or cells: baculovirus expression system
T2 sequence (O60674 536-812 W659A/W777A/F794H): as the sequence (O60674 536-812 V617F/W659A/W777A/F794H) above, with F82V counted along it
Protocol: as §1, with “Example B.” for “Example C.”, “LanthaScreen JH2-WT” for “LanthaScreen JH2-V617F”, “JAK2 JH2-WT” for “JAK2 JH2-V617F”, “human Wild Type” for “human V617F mutant”, “Catalog #79463).” for “Catalog #79498).”, “JAK2 JH2-WT (0.145” for “JAK2 JH2-V617F (0.26”

[3] = biological target: T3, catalytic domain (JH1) of human JAK2 (Homo sapiens, UniProt O60674); experiment: JAK2 LanthaScreen JH1 Binding Assay; details: 50 nM Fluorescent JAK2-JH1 Tracer, 2 hours at 25° C.
T3 construct: catalytic domain (JH1, amino acids 826-1132) of human JAK2; FLAG (N); purchased Carna Biosciences 08-445-20N; host or cells: baculovirus expression system
T3 sequence (O60674 826-1132): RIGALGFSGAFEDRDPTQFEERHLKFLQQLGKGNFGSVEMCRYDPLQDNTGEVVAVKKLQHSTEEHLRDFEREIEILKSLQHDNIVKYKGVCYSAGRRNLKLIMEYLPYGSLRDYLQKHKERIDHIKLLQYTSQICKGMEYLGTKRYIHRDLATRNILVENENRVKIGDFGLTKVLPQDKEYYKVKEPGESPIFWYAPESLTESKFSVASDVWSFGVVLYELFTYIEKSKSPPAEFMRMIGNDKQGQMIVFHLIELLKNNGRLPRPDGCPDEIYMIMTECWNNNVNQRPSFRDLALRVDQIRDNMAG
Protocol: Example A. JAK2 LanthaScreen […] Binding Assay JAK2 JH1 binding assay utilizes catalytic domain (JH1, amino acids 826-1132) of human JAK2 expressed as N-terminal FLAG-tagged, biotinylated protein in a baculovirus expression system (Carna Biosciences, Product #08-445-20N). The assay was conducted in black 384-well polystyrene plates in a final reaction volume of 20 μL. JAK2 JH1 (1.5 nM) was incubated with compounds (100 nL serially diluted in DMSO) in the presence of 50 nM Fluorescent JAK2-JH1 Tracer and 0.5 nM Streptavidin-Tb cryptate (Cisbio Part #610SATLB) in assay buffer (50 mM Tris, pH=7.5, 10 mM MgCl2, 0.01% Brij-35, 0.1% BSA, 1 mM EGTA, 5% Glycerol and 5 mM DTT). Non-specific binding was accessed in the presence of 2 mM ATP. After incubation for 2 hours at 25° C., LanthaScreen signals were read on a PHERAstar FS plate reader (BMG LABTECH). Data was analyzed with IDBS XLfit and GraphPad Prism 5.0 software using a four parameter dose response curve to determine IC50 for each compound.

CN(C)S(=O)(=O)c1ccc(-c2[nH]c3nc(N)[nH]c(=O)c3c2-c2ccc(C#N)cc2)cc1 [Example 39, 4-(2-Amino-5-(4-cyanophenyl)-4-oxo-4,7-dihydro-3H-pyrrolo[2,3-d]pyrimidin-6-yl)-N,N-dimethylbenzene sulfonamide]
IC50 [1]: 1 to 2.5 µM | IC50 [2]: 0.5 to 1 µM | IC50 [3]: > 2.5 µM

CN(C)S(=O)(=O)c1ccc(-c2[nH]c3nc(N)[nH]c(=O)c3c2-c2ccccc2C#N)cc1 [Example 18, 4-(2-Amino-5-(2-cyano-phenyl)-4-oxo-4,7-dihydro-3H-pyrrolo[2,3-d]pyrimidin-6-yl)-N,N-dimethylbenzene sulfonamide]
IC50 [1]: > 2.5 µM | IC50 [2]: > 2.5 µM | IC50 [3]: > 2.5 µM

CN(C)S(=O)(=O)c1ccc(-c2[nH]c3nc(N)[nH]c(=O)c3c2-c2cnn(Cc3cccc(C(=O)O)c3)c2)cc1 [Example 51, 3-((4-(2-amino-6-(4-(N,N-dimethylsulfamoyl)phenyl)-4-oxo-4,7-dihydro-3H-pyrrolo[2,3-d]pyrimidin-5-yl)-1H-pyrazol-1-yl)methyl)benzoic acid]
IC50 [1]: 0.5 to 1 µM | IC50 [2]: 0.5 to 1 µM | IC50 [3]: 1 to 2.5 µM

CN(C)S(=O)(=O)c1ccc(-c2[nH]c3nc(N)[nH]c(=O)c3c2-c2cccc3c2OC(C)(C)C3)cc1 [Example 71, 4-(2-Amino-5-(2,2-dimethyl-2,3-dihydrobenzofuran-7-yl)-4-oxo-4,7-dihydro-3H-pyrrolo[2,3-d]pyrimidin-6-yl)-N,N-dimethylbenzenesulfonamide]
IC50 [1]: > 2.5 µM | IC50 [2]: > 2.5 µM | IC50 [3]: > 2.5 µM

COc1ccccc1-c1c(-c2ccccc2)[nH]c2nc(N)[nH]c(=O)c12 [Example 57, 2-Amino-5-(2-methoxyphenyl)-6-phenyl-3,7-dihydro-4H-pyrrolo [2,3-d]pyrimidin-4-one]
IC50 [1]: 1 to 2.5 µM | IC50 [2]: 1 to 2.5 µM | IC50 [3]: > 2.5 µM

Nc1nc2[nH]c(-c3ccccc3)c(-c3cccc(F)c3)c2c(=O)[nH]1 [Example 58, 2-Amino-5-(3-fluorophenyl)-6-phenyl-3,7-dihydro-4H-pyrrolo[2,3-d] pyrimidin-4-one]
IC50 [1]: 1 to 2.5 µM | IC50 [2]: 1 to 2.5 µM | IC50 [3]: > 2.5 µM

CCOc1ccccc1-c1c(-c2ccc(S(=O)(=O)N(C)C)cc2)[nH]c2nc(N)[nH]c(=O)c12 [Example 70, 4-(2-Amino-5-(2-ethoxyphenyl)-4-oxo-4,7-dihydro-3H-pyrrolo[2,3-d]pyrimidin-6-yl)-N,N-dimethylbenzenesulfonamide]
IC50 [1]: 1 to 2.5 µM | IC50 [2]: 1 to 2.5 µM | IC50 [3]: > 2.5 µM

CN(C)S(=O)(=O)c1ccc(-c2[nH]c3nc(N)[nH]c(=O)c3c2-c2cccc(C(=O)O)c2)cc1 [Example 34, 3-(2-amino-6-(4-(N,N-dimethylsulfamoyl)phenyl)-4-oxo-4,7-dihydro-3H-pyrrolo[2,3-d]pyrimidin-5-yl)benzoic acid]
IC50 [1]: 0.1 to 0.5 µM | IC50 [2]: 0.1 to 0.5 µM | IC50 [3]: > 2.5 µM

CN(C)S(=O)(=O)c1ccc(-c2[nH]c3nc(N)[nH]c(=O)c3c2-c2cccc3c2OCCN3)cc1 [Example 49, 4-(2-Amino-5-(3,4-dihydro-2H-benzo[b][1,4]oxazin-8-yl)-4-oxo-4,7-dihydro-3H-pyrrolo[2,3-d]pyrimidin-6-yl)-N,N-dimethylbenzenesulfonamide]
IC50 [1]: 0.5 to 1 µM | IC50 [2]: 0.5 to 1 µM | IC50 [3]: > 2.5 µM

CN(C)S(=O)(=O)c1ccc(-c2[nH]c3nc(N)[nH]c(=O)c3c2-c2ccc3c(c2)CCNC3=O)cc1 [Example 21, 4-(2-Amino-4-oxo-5-(1-oxo-1,2,3,4-tetrahydro-isoquinolin-6-yl)-4,7-dihydro-3H-pyrrolo[2,3-d]pyrimidin-6-yl)-N,N-dimethylbenzene sulfonamide]
IC50 [1]: 0.1 to 0.5 µM | IC50 [2]: 0.1 to 0.5 µM | IC50 [3]: 1 to 2.5 µM

CN(C)S(=O)(=O)c1ccc(-c2[nH]c3nc(N)[nH]c(=O)c3c2-c2ccnn2C)cc1 [Example 46, 4-(2-Amino-5-(1-methyl-1H-pyrazol-5-yl)-4-oxo-4,7-dihydro-3H-pyrrolo[2,3-d]pyrimidin-6-yl)-N,N-dimethylbenzenesulfonamide]
IC50 [1]: > 2.5 µM | IC50 [2]: > 2.5 µM | IC50 [3]: > 2.5 µM

CN(C)S(=O)(=O)c1ccc(-c2[nH]c3nc(N)[nH]c(=O)c3c2-c2cnn(Cc3ccccc3)c2)cc1 [Example 30, 4-(2-Amino-5-(1-benzyl-1H-pyrazol-4-yl)-4-oxo-4,7-dihydro-3H-pyrrolo[2,3-d]pyrimidin-6-yl)-N,N-dimethylbenzene sulfonamide]
IC50 [1]: > 2.5 µM | IC50 [2]: > 2.5 µM | IC50 [3]: > 2.5 µM

COc1ccccc1-c1c(-c2ccc(S(C)(=O)=O)cc2)[nH]c2nc(N)[nH]c(=O)c12 [Example 62, 2-Amino-5-(2-methoxyphenyl)-6-(4-(methylsulfonyl)phenyl)-3,7-dihydro-4H-pyrrolo [2,3-d]pyrimidin-4-one]
IC50 [1]: 0.5 to 1 µM | IC50 [2]: 1 to 2.5 µM | IC50 [3]: > 2.5 µM

CN(C)S(=O)(=O)c1ccc(-c2[nH]c3nc(N)[nH]c(=O)c3c2-c2cccc(C(N)=O)c2)cc1 [Example 14, 3-(2-Amino-6-(4-(N,N-dimethylsulfamoyl)phenyl)-4-oxo-4,7-dihydro-3H-pyrrolo [2,3-d]pyrimidin-5-yl)benzamide]
IC50 [1]: 1 to 2.5 µM | IC50 [2]: 1 to 2.5 µM | IC50 [3]: 1 to 2.5 µM

CN(C)S(=O)(=O)c1ccc(-c2[nH]c3nc(N)[nH]c(=O)c3c2-c2cccc3c2OCC(=O)N3)cc1 [Example 48, 4-(2-Amino-4-oxo-5-(3-oxo-3,4-dihydro-2H-benzo[b][1,4]oxazin-8-yl)-4,7-dihydro-3H-pyrrolo[2,3-d]pyrimidin-6-yl)-N,N-dimethylbenzenesulfonamide]
IC50 [1]: 0.1 to 0.5 µM | IC50 [2]: 0.1 to 0.5 µM | IC50 [3]: > 2.5 µM

CN(C)S(=O)(=O)c1ccc(-c2[nH]c3nc(N)[nH]c(=O)c3c2-c2ccccc2OC(F)F)cc1 [Example 19, 4-(2-Amino-5-(2-(difluoromethoxy)phenyl)-4-oxo-4,7-dihydro-3H-pyrrolo[2,3-d]pyrimidin-6-yl)-N,N-dimethylbenzene sulfonamide]
IC50 [1]: 1 to 2.5 µM | IC50 [2]: > 2.5 µM | IC50 [3]: > 2.5 µM

CN(C)S(=O)(=O)c1ccc(-c2[nH]c3nc(N)[nH]c(=O)c3c2-c2ccc(C(=O)O)cc2)cc1 [Example 35, 4-(2-amino-6-(4-(N,N-dimethylsulfamoyl)phenyl)-4-oxo-4,7-dihydro-3H-pyrrolo[2,3-d]pyrimidin-5-yl)benzoic acid]
IC50 [1]: 0.1 to 0.5 µM | IC50 [2]: 0.1 to 0.5 µM | IC50 [3]: 0.5 to 1 µM

CN(C)S(=O)(=O)c1ccc(-c2[nH]c3nc(N)[nH]c(=O)c3c2-c2cnn(C3CCS(=O)(=O)C3)c2)cc1 (stereo not drawn) [Example 36, 4-(2-Amino-5-(1-(1,1-dioxidotetrahydrothiophen-3-yl)-1H-pyrazol-4-yl)-4-oxo-4,7-dihydro-3H-pyrrolo[2,3-d]pyrimidin-6-yl)-N,N-dimethylbenzene sulfonamide]
IC50 [1]: 1 to 2.5 µM | IC50 [2]: 1 to 2.5 µM | IC50 [3]: 1 to 2.5 µM
